Literature values in patent US20220090193A1, “ATTACHING NUCLEOTIDES TO A POLYNUCLEOTIDE WITH A POLYMERASE” (priority 2019, published 2022).

Conditions: amino acid side chain

NCCCC[C@H](N)C(=O)O [Lysine]
pKa: 10.54
